Source: PubChem BioAssay (NCI)
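These data come from cells grown in 96-well plates and exposed to compound for 48 hours at five concentrations. GI50 = concentration required for 50% inhibition of growth. TGI is the concentration that stops growth completely.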

Legend:
Assay in all cases: NCI anticancer screen, dose series, 48 h
CCRF-CEM leukemia = system: CCRF-CEM leukemia
SF-268 CNS = system: SF-268 CNS
SNB-19 CNS = system: SNB-19 CNS
LOX IMVI melanoma = system: LOX IMVI melanoma
IGROV1 ovarian = system: IGROV1 ovarian
RXF 393 renal = system: RXF 393 renal
OVCAR-4 ovarian = system: OVCAR-4 ovarian
786-0 renal = system: 786-0 renal
SNB-75 CNS = system: SNB-75 CNS
K-562 leukemia = system: K-562 leukemia

Row | Compound | TGI (CCRF-CEM leukemia) [µM] | TGI (SF-268 CNS) [µM] | TGI (SNB-19 CNS) [µM] | TGI (LOX IMVI melanoma) [µM] | TGI (IGROV1 ovarian) [µM] | TGI (RXF 393 renal) [µM] | TGI (OVCAR-4 ovarian) [µM] | TGI (786-0 renal) [µM] | TGI (SNB-75 CNS) [µM] | TGI (K-562 leukemia) [µM] | GI50 (OVCAR-4 ovarian) [µM] | GI50 (SNB-75 CNS) [µM] | GI50 (CCRF-CEM leukemia) [µM] | GI50 (SF-268 CNS) [µM] | GI50 (SNB-19 CNS) [µM] | GI50 (LOX IMVI melanoma) [µM] | GI50 (IGROV1 ovarian) [µM] | GI50 (RXF 393 renal) [µM] | GI50 (786-0 renal) [µM] | GI50 (K-562 leukemia) [µM]
1 | Fc1cccc(C=NC23CC4CC(CC(C4)C2)C3)c1 | > 100 | > 100 | > 100 | > 100 | > 100 | > 100 | > 100 | > 100 | > 100 | > 100 |  |  |  |  |  |  |  |  |  | 
2 | S=c1nc(/C=C/c2ccc(Cl)c(Cl)c2)[nH][nH]1 | > 100 | > 100 | > 100 | > 100 | > 100 | > 100 | > 100 | > 100 | > 100 | > 100 | 65.5 | > 100 |  |  |  |  |  |  |  | 
3 | CC1(C)CCC(CN2CCN(c3ccc(C(=O)NS(=O)(=O)c4ccc(NCC5CCOCC5)c([N+](=O)[O-])c4)c(Oc4cnc5[nH]ccc5c4)c3)CC2)=C(c2ccc(Cl)cc2)C1 | 7.29 | 17.8 | 23.8 | 4.85 | 9.57 | 3.48 | 20.4 | 12.5 | 15.1 | 26.9 | 3.53 | 3.71 | 2.32 | 3.58 | 3.55 | 2.21 | 2.98 | 1.57 | 3.54 | 3.5
4 | CCOC(=O)C12CN(C34CC5CC(CC(C5)C3)C4)CC(C(=O)OCC)(C1=O)C(c1ccccc1)OC2c1ccccc1 (configuration not stated) | > 100 | > 100 | > 100 | > 100 | > 100 | > 100 | > 100 | > 100 | > 100 | > 100 |  |  |  |  |  |  |  |  |  | 
5 | CC(=O)C(CN1CCOCC1)C(c1ccccc1)c1c(O)c2ccccc2oc1=O (configuration not stated) | > 100 | > 100 | > 100 | > 100 | > 100 | > 100 | > 100 | > 100 | > 100 | > 100 |  |  |  |  |  |  |  |  |  | 
6 | c1ccc(COc2ccc(Nc3ncnc4ccc(-c5ccco5)cc34)cc2)cc1 | > 25 | > 25 | > 25 | 8.96 | > 23.1 | 8.61 | 17.1 | 12.9 | > 18.9 | > 25 | 4.69 | 6.82 | 7.76 | 8.29 | 12.7 | 4.36 | 7.11 | 3.4 | 4.91 | 9.74
7 | COc1ccc(C2=NN(c3ccc(S(N)(=O)=O)cc3)C(c3ccc(Cl)cc3)C2)c(O)c1 (configuration not stated) | 6.92 | 25.5 | 65.1 | 17 | 15.2 | 9.78 | 37.5 | 5.15 | 45.1 | 4.09 | 4.51 | 5.87 | 2.39 | 5.7 | 10.8 | 4.83 | 3.63 | 2.53 | 2.22 | 1.8
